Tests used:
[1] = Aging microcebes, chronic treatment; format: in vivo; conditions: chronic treatment for 18 months
Text: Aging microcebes show similar cognitive deficits and cerebral lesions to those observed in aging humans and in AD patients. Thus this is a good animal model for AD, […] major hallmarks in AD {plaques (Aβ), paired helical filaments (hyperphophorylated and aggregated τ) and cognitive dysfunction}.

[2] = Stability of 10% w/w AF150(S) in paraffin oil; format: physicochemical
Method: In another embodiment of the invention, AF150(S) is provided in pharmaceutical acceptable paraffin oil. […] Ph) was examined at 40° C. under air or nitrogen atmosphere, in the presence or absence tocopherol. Samples were analyzed after two months storage. TLC, […] and GC were used to detect and determine the quantity of possible degradation product(s). Color changes were determined in comparison with Paraffin oil with or without tocopherol under the same conditions. AF150(S) was stable in the paraffin oil formulation.

rat hippocampal neurons = assay: Survival, morphology and apoptosis of rat hippocampal neurons exposed to Aβ; format: cell-based
Method: This study was performed in rat hippocampal primary cell cultures using the methods described by Garrido J L et al. (FASEB J 2002; 16:1982).

[3] = molecular target: muscarinic receptors (QNB, rat cerebellar membranes) (Rattus norvegicus, UniProt P10980); conditions: read-out: QNB binding, Ki
muscarinic receptors (QNB, rat cerebellar membranes), sequence (P10980 whole entry): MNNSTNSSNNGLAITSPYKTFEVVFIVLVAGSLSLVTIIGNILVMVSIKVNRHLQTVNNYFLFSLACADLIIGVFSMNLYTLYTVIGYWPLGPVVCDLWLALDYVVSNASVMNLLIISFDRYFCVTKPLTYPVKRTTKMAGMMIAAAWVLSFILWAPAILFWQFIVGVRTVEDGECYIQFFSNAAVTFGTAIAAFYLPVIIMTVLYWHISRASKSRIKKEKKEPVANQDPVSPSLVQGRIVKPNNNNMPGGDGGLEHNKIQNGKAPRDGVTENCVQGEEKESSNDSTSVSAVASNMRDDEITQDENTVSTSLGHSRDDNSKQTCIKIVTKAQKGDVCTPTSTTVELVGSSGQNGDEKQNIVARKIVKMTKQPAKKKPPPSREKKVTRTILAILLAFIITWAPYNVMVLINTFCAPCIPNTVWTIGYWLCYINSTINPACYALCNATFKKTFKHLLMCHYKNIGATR

Compound	astrogliosis and inflammation [1]	cognitive and behavioral impairments [1]	hyperphosphorylated τ proteins, neurons with aggregated τ, paired helical filaments [1]	Stability in the paraffin oil formulation ([2]; 40° C., two months)	Color change ([2]; samples containing 0.5% w/w tocopherol)	Color change ([2]; samples without tocopherol)	survival and morphology of hippocampal neurons (rat hippocampal neurons; 0.5-50 μM, compound alone)	neurites / dendritic shrinkage induced by Aβ1-40 (rat hippocampal neurons; blocked by pirenzepine 10 nM)	Ki [3] [µM]
CC1=NCC2(CCN(C)CC2)S1 [AF150(S), 2,8-Dimethyl-1-thia-3,8-diaza-spiro[4.5]dec-2-ene]	decreased astrogliosis and inflammation	improved the cognitive and behavioral impairments	decreased hyperphosphorylated τ proteins	stable	color was not developed	slight yellow color	–	–	–
CC[C@@H]1SC2(CCN(C)CC2)NC1=O [AF267B, (S)-2-ethyl-8-methyl-1-thia-4,8-diaza-spiro[4.5]decan-3-one]	–	–	–	–	–	–	does not affect the survival and morphology	protected the neurons	45.2 ± 10.8
